Like-named read-outs stand apart in the source and are kept apart here.
Assays:
[1] = target: mutEGFR (D770_N771insSVD) (Homo sapiens (Human), UniProt P00533, INS770SVD); assay: biochemical; conditions: mutEGFR (D770_N771 insSVD) at 2 mM ATP IC50, 2 mM ATP
Ba/F3-EGFR-insSVD = assay: Ba/F3 cell survival assay, EGFR-insSVD; type: cell-based
Procedure, shortened: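 Ba/F3 cells stably expressing WT EGFR or EGFR-insSVD via retrovirus, grown without IL-3 on 10 ng/mL EGF, plated at 4000 cells/well. Compound exposure 48 h at 37 °C; viability read by CellTiter-Glo luminescence.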

human Bub1 = human Bub1 (Homo sapiens (Human), UniProt O43683); assay: Bub1 high ATP kinase assay (TR-FRET); type: biochemical; conditions: read-out: Bub1 high ATP (2 mM) IC50; 2 mM ATP
From the text: Bub1-inhibitory activity of compounds of the present invention at a high ATP concentration was quantified employing the Bub1 TR-FRET high ATP kinase assay as described in the following paragraphs.
N-terminally His6-tagged recombinant catalytic domain of human Bub1 (amino acids 704-1085), expressed in insect cells (Hi5) and purified by Ni-NTA affinity chromatography and subsequent size exclusion chromatography, was used as enzyme.

Ba/F3-EGFR-WT = assay: Ba/F3 cell survival assay, WT EGFR; type: cell-based; conditions: Mus musculus, BaF3, 48 h, read-out: BA/F3 (wild type) IC50, cell viability, Cell Titer-Glo, 48 h, with 10 ng/mL EGF, without IL-3
[2] = Mus musculus, BaF3, 48 h, read-out: BA/F3 (insSVD) IC50, cell viability, Cell Titer-Glo, 48 h, with 10 ng/mL EGF, without IL-3

mutEGFR (D770_N771insSVD), sequence (P00533 other isoform, or with tags, fused parts or gaps ins SVD behind 770): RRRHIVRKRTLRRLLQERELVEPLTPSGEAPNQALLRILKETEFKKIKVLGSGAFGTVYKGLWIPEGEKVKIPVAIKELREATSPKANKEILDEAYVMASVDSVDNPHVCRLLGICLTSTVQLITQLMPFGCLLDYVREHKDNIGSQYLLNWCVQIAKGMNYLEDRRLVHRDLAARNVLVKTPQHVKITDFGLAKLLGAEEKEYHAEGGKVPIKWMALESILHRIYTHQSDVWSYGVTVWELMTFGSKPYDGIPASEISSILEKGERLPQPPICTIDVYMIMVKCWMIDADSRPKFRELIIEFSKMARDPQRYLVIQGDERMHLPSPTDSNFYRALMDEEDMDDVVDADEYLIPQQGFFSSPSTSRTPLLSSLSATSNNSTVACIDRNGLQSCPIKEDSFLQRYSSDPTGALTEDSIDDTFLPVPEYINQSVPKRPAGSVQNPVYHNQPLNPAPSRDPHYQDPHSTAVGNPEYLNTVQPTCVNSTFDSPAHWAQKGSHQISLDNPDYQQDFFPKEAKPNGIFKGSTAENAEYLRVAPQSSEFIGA
human Bub1, sequence (O43683 704-1085): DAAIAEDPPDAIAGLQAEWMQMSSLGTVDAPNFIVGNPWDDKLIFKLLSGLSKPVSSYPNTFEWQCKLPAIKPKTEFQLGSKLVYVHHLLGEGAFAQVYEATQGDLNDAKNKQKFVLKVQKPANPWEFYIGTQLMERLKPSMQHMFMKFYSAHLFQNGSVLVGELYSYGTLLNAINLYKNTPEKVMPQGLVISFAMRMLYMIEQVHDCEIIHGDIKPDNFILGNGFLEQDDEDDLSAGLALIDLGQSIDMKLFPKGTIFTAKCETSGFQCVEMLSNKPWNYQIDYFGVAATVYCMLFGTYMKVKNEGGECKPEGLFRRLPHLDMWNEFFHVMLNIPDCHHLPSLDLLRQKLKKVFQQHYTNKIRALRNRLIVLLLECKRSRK

| SMILES | IC50 [1] | IC50 (Ba/F3-EGFR-insSVD; [2]) | IC50 (human Bub1) | IC50 (Ba/F3-EGFR-WT) | IC50 (Ba/F3-EGFR-insSVD; read-out: BA/F3 (insSVD) IC50, cell viability, Cell Titer-Glo, 48 h, with 10 ng/mL EGF, without IL-3) |
| --- | --- | --- | --- | --- | --- |
| Cc1c(Cl)cccc1Nc1c(-c2ccncc2OCC2(C)CCO2)[nH]c2c1C(=O)NCC2 (single isomer, unassigned; (-)) [Example 81, (−)-3-(3-chloro-2-methylanilino)-2-(3-{[2-methyloxetan-2-yl]methoxy}pyridin-4-yl)-1,5,6,7-tetrahydro-4H-pyrrolo[3,2-c]pyridin-4-one] | 0.129 nM | 96.4 nM | 5050 nM | 664 nM |  |
| Cc1c(F)cccc1Nc1c(-c2ccncc2OCC2(C)CCO2)[nH]c2c1C(=O)NCC2 (single isomer, unassigned; (-)) [Example 84, (−)-3-(3-fluoro-2-methylanilino)-2-(3-{[2-methyloxetan-2-yl]methoxy}pyridin-4-yl)-1,5,6,7-tetrahydro-4H-pyrrolo[3,2-c]pyridin-4-one] | 0.156 nM |  | 14900 nM | 1290 nM | 306 nM |
| O=C1NCCc2[nH]c(-c3ccncc3OCC3COC3)c(Nc3cccc(F)c3Cl)c21 [Example 16, 3-(2-chloro-3-fluoroanilino)-2-{3-[(oxetan-3-yl)methoxy]pyridin-4-yl}-1,5,6,7-tetrahydro-4H-pyrrolo[3,2-c]pyridin-4-one] | 0.0988 nM | 193 nM | 13900 nM | 1140 nM |  |
| CCC1(COc2cnccc2-c2[nH]c3c(c2Nc2cccc(Cl)c2C)C(=O)NCC3)COC1 [Example 23, 3-(3-chloro-2-methylanilino)-2-{3-[(3-ethyloxetan-3-yl)methoxy]pyridin-4-yl}-1,5,6,7-tetrahydro-4H-pyrrolo[3,2-c]pyridin-4-one] | 0.96 nM | 190 nM | > 5710 nM | 3380 nM |  |
| CCc1c(Cl)cccc1Nc1c(-c2ccncc2OCC2(C)CCO2)[nH]c2c1C(=O)NCC2 (stereo not shown) [Example 78, 3-(3-chloro-2-ethylanilino)-2-(3-{[2-methyloxetan-2-yl]methoxy}pyridin-4-yl)-1,5,6,7-tetrahydro-4H-pyrrolo[3,2-c]pyridin-4-one] | 0.267 nM | 30.4 nM | 2800 nM | 698 nM |  |
| CCC1(COc2cnccc2-c2[nH]c3c(c2Nc2cccc(C)c2Cl)C(=O)NCC3)COC1 [Example 86, 3-(2-chloro-3-methylanilino)-2-{3-[(3-ethyloxetan-3-yl)methoxy]pyridin-4-yl}-1,5,6,7-tetrahydro-4H-pyrrolo[3,2-c]pyridin-4-one] | 0.187 nM | 255 nM | > 5700 nM | 899 nM |  |
| CCC1(COc2cnccc2-c2[nH]c3c(c2Nc2cccc(F)c2OC)C(=O)NCC3)COC1 [Example 88, 2-{3-[(3-ethyloxetan-3-yl)methoxy]pyridin-4-yl}-3-(3-fluoro-2-methoxyanilino)-1,5,6,7-tetrahydro-4H-pyrrolo[3,2-c]pyridin-4-one] | 0.0873 nM | 66.8 nM | 7490 nM | 1130 nM |  |
